Results taken from paper PMC10819888, “Benzimidazole-Based Derivatives as Apoptotic Antiproliferative Agents: Design, Synthesis, Docking, and Mechanistic Studies” (Molecules, 2024).

Tests used:
Assay in all cases: NCI-60 one-dose assay
Format in all cases: cell-based
[1] = system: HOP-62; settings: Homo sapiens, HOP-62 (Non-Small Cell Lung Cancer), read-out: Cell Inhibition Percent
Protocol: (§1) The final compounds were submitted to the National Cancer Institute, Bethesda, USA, for screening in vitro for anti-cancer. […] compounds, 4a–j, 5, and 6, were selected according to the Development Therapeutic Program (DTP) protocol. The selected compounds were evaluated for their in vitro cytotoxic activity against a panel of sixty cancer cell lines (NCI-60 cell line panel) derived from six cell lines panel of leukemia, nine cell lines of lung cancer, six cell lines of CNS cancer, seven cell lines of colon cancer, eight cell lines of melanoma, six cell lines of ovarian cancer, eight cell lines of renal cancer, two cell lines of prostate cancer, and eight cell lines of breast cancer, representing the full nine human systems as leukemia, melanoma, and cancers of the lung, colon, brain, breast, ovary, kidney, and prostate.
(§2) The selected compounds 4a–j, 5, and 6 were tested at a single concentration of 10 µM. The screening results for the selected compounds are illustrated in Table 1.
(§3) The NCI anti-cancer screening methodology has been described in detail elsewhere (http://www.dtp.nci.nih.gov, accessed on 20 February 2021). Following the Drug Evaluation Branch protocol, National Cancer Institute, Bethesda, USA, a primary anti-cancer assay was performed on approximately 60 human tumor cell line panels derived from nine neoplastic diseases.

[2] = system: K-562; settings: Homo sapiens, K562, K-562 (Leukemia), read-out: Cell Inhibition Percent
Protocol: as §1, §2, §3

[3] = system: LOX IMVI; settings: Homo sapiens, LOX IMVI (Melanoma), read-out: Cell Inhibition Percent
Protocol: as §1, §2, §3

[4] = system: HS 578T; settings: Homo sapiens, HS 578T (Breast Cancer), read-out: Cell Inhibition Percent
Protocol: as §1, §2, §3

[5] = system: MDA-MB-468; settings: Homo sapiens, MDA-MB-468 (Breast Cancer), read-out: Cell Inhibition Percent
Protocol: as §1, §2, §3

[6] = system: NCI-H460; settings: Homo sapiens, NCI-H460 (Non-Small Cell Lung Cancer), read-out: Cell Inhibition Percent
Protocol: as §1, §2, §3

[7] = system: HCT-116; settings: Homo sapiens, HCT-116 (Colon Cancer), read-out: Cell Inhibition Percent
Protocol: as §1, §2, §3

[8] = system: UACC-62; settings: Homo sapiens, UACC-62 (Melanoma), read-out: Cell Inhibition Percent
Protocol: as §1, §2, §3

[9] = system: RPMI-8226; settings: Homo sapiens, RPMI-8226 (Leukemia), read-out: Cell Inhibition Percent
Protocol: as §1, §2, §3

[10] = system: ACHN; settings: Homo sapiens, ACHN (Renal Cancer), read-out: Cell Inhibition Percent
Protocol: as §1, §2, §3

[11] = system: NCI-H522; settings: Homo sapiens, NCI-H522 (Non-Small Cell Lung Cancer), read-out: Cell Inhibition Percent
Protocol: as §1, §2, §3

[12] = system: OVCAR-4; settings: Homo sapiens, OVCAR-4 (ovarian cancer), read-out: Cell Inhibition Percent
Protocol: as §1, §2, §3

[13] = system: OVCAR-5; settings: Homo sapiens, OVCAR-5 (ovarian cancer), read-out: Cell Inhibition Percent
Protocol: as §1, §2, §3

[14] = system: UO-31; settings: Homo sapiens, UO-31 (Renal Cancer), read-out: Cell Inhibition Percent
Protocol: as §1, §2, §3

[15] = system: NCI-H322M; settings: Homo sapiens, NCI-H322M (Non-Small Cell Lung Cancer), read-out: Cell Inhibition Percent
Protocol: as §1, §2, §3

[16] = system: T-47D; settings: Homo sapiens, T47D, T-47D (Breast Cancer), read-out: Cell Inhibition Percent
Protocol: as §1, §2, §3

[17] = system: KM12; settings: Homo sapiens, KM12 (Colon Cancer), read-out: Cell Inhibition Percent
Protocol: as §1, §2, §3

[18] = system: CAKI-1; settings: Homo sapiens, CAKI-1 (Renal Cancer), read-out: Cell Inhibition Percent
Protocol: as §1, §2, §3

[19] = system: MDA-MB-435; settings: Homo sapiens, MDA-MB-435 (Melanoma), read-out: Cell Inhibition Percent
Protocol: as §1, §2, §3

[20] = system: HOP-92; settings: Homo sapiens, HOP-92 (Non-Small Cell Lung Cancer), read-out: Cell Inhibition Percent
Protocol: as §1, §2, §3

[21] = system: 786-0; settings: Homo sapiens, 786-0 (Renal Cancer), read-out: Cell Inhibition Percent
Protocol: as §1, §2, §3

[22] = system: HCC-2998; settings: Homo sapiens, HCC-2998 (Colon Cancer), read-out: Cell Inhibition Percent
Protocol: as §1, §2, §3

[23] = system: M14; settings: Homo sapiens, M14 (Melanoma), read-out: Cell Inhibition Percent
Protocol: as §1, §2, §3

[24] = system: HCT-15; settings: Homo sapiens, HCT-15 (Colon Cancer), read-out: Cell Inhibition Percent
Protocol: as §1, §2, §3

[25] = system: HL-60(TB); settings: Homo sapiens, HL-60(TB) (Leukemia), read-out: Cell Inhibition Percent
Protocol: as §1, §2, §3

[26] = system: BT-549; settings: Homo sapiens, BT-549 (Breast Cancer), read-out: Cell Inhibition Percent
Protocol: as §1, §2, §3

[27] = system: SN12C; settings: Homo sapiens, SN12C (Renal Cancer), read-out: Cell Inhibition Percent
Protocol: as §1, §2, §3

[28] = system: DU-145; settings: Homo sapiens, DU-145 (Prostate Cancer), read-out: Cell Inhibition Percent
Protocol: as §1, §2, §3

[29] = system: A498; settings: Homo sapiens, A498 (Renal Cancer), read-out: Cell Inhibition Percent
Protocol: as §1, §2, §3

[30] = system: SR; settings: Homo sapiens, SR (Leukemia), read-out: Cell Inhibition Percent
Protocol: as §1, §2, §3

[31] = system: SK-OV-3; settings: Homo sapiens, SK-OV-3 (ovarian cancer), read-out: Cell Inhibition Percent
Protocol: as §1, §2, §3

## O=C(N/N=C/c1ccc(O)cc1)c1ccc2[nH]c(-c3ccc(Cl)cc3)nc2c1 [Compound 4i, N′-(4-Hydroxybenzylidene)-2-(4-chlorophenyl)-1H-benzimidazole-5-carbohydrazide]
[1]
  inhibition at 10 µM: 0%
[2]
  inhibition at 10 µM: 0.25%
[3]
  inhibition at 10 µM: 11.9%
[4]
  inhibition at 10 µM: 5.94%
[5]
  inhibition at 10 µM: 0%
[6]
  inhibition at 10 µM: 0%
[7]
  inhibition at 10 µM: 0%
[8]
  inhibition at 10 µM: 5.2%
[9]
  inhibition at 10 µM: 1.52%
[10]
  inhibition at 10 µM: 4.33%
[11]
  inhibition at 10 µM: 9.85%
[12]
  inhibition at 10 µM: 0%
[13]
  inhibition at 10 µM: 0%
[14]
  inhibition at 10 µM: 15.9%
[15]
  inhibition at 10 µM: 0.47%
[16]
  inhibition at 10 µM: 24.2%
[17]
  inhibition at 10 µM: 2.85%
[18]
  inhibition at 10 µM: 1.91%
[19]
  inhibition at 10 µM: 0%
[20]
  inhibition at 10 µM: 0%
[21]
  inhibition at 10 µM: 0%
[22]
  inhibition at 10 µM: 0%
[23]
  inhibition at 10 µM: 0.44%
[24]
  inhibition at 10 µM: 0%
[25]
  inhibition at 10 µM: 0%
[26]
  inhibition at 10 µM: 0%
[27]
  inhibition at 10 µM: 0%
[28]
  inhibition at 10 µM: 0%
[29]
  inhibition at 10 µM: 5.34%
[30]
  inhibition at 10 µM: 2.26%
[31]
  inhibition at 10 µM: 5.09%

## O=C(NN=Cc1ccc(Cl)cc1)c1ccc2[nH]c(-c3ccc(Cl)cc3)nc2c1 [Compound 4e, N′-(4-Chlorobenzylidene)-2-(4-chlorophenyl)-1H-benzimidazole-5-carbohydrazide]
[1]
  inhibition at 10 µM: 92%
[2]
  inhibition at 10 µM: 91.3%
[3]
  inhibition at 10 µM: 156%
[4]
  inhibition at 10 µM: 67%
[5]
  inhibition at 10 µM: 144%
[6]
  inhibition at 10 µM: 134%
[7]
  inhibition at 10 µM: 102%
[8]
  inhibition at 10 µM: 83.2%
[9]
  inhibition at 10 µM: 97.2%
[10]
  inhibition at 10 µM: 120%
[11]
  inhibition at 10 µM: 36.8%
[12]
  inhibition at 10 µM: 118%
[13]
  inhibition at 10 µM: 76.3%
[14]
  inhibition at 10 µM: 78.4%
[15]
  inhibition at 10 µM: 72.3%
[16]
  inhibition at 10 µM: 113%
[17]
  inhibition at 10 µM: 129%
[18]
  inhibition at 10 µM: 38.8%
[19]
  inhibition at 10 µM: 61.2%
[20]
  inhibition at 10 µM: 71.9%
[21]
  inhibition at 10 µM: 142%
[22]
  inhibition at 10 µM: 96.3%
[23]
  inhibition at 10 µM: 80.3%
[24]
  inhibition at 10 µM: 95.3%
[25]
  inhibition at 10 µM: 94.2%
[26]
  inhibition at 10 µM: 0%
[27]
  inhibition at 10 µM: 137%
[28]
  inhibition at 10 µM: 69.5%
[29]
  inhibition at 10 µM: 43.9%
[30]
  inhibition at 10 µM: 124%
[31]
  inhibition at 10 µM: 50.2%
